The target of experiment [1] is T1, angiotension I-converting enzyme (ACE) (Oryctolagus cuniculus, UniProt P12822).
T1 construct: The ACE solution was prepared by homogenizing 5 g of acetone powders of rabbit lungs; tissue Sigma Chemical Co; host or cells: rabbit lung (acetone powder, borate buffer extract, 40,000 G supernatant)
T1 sequence (P12822 34-1310): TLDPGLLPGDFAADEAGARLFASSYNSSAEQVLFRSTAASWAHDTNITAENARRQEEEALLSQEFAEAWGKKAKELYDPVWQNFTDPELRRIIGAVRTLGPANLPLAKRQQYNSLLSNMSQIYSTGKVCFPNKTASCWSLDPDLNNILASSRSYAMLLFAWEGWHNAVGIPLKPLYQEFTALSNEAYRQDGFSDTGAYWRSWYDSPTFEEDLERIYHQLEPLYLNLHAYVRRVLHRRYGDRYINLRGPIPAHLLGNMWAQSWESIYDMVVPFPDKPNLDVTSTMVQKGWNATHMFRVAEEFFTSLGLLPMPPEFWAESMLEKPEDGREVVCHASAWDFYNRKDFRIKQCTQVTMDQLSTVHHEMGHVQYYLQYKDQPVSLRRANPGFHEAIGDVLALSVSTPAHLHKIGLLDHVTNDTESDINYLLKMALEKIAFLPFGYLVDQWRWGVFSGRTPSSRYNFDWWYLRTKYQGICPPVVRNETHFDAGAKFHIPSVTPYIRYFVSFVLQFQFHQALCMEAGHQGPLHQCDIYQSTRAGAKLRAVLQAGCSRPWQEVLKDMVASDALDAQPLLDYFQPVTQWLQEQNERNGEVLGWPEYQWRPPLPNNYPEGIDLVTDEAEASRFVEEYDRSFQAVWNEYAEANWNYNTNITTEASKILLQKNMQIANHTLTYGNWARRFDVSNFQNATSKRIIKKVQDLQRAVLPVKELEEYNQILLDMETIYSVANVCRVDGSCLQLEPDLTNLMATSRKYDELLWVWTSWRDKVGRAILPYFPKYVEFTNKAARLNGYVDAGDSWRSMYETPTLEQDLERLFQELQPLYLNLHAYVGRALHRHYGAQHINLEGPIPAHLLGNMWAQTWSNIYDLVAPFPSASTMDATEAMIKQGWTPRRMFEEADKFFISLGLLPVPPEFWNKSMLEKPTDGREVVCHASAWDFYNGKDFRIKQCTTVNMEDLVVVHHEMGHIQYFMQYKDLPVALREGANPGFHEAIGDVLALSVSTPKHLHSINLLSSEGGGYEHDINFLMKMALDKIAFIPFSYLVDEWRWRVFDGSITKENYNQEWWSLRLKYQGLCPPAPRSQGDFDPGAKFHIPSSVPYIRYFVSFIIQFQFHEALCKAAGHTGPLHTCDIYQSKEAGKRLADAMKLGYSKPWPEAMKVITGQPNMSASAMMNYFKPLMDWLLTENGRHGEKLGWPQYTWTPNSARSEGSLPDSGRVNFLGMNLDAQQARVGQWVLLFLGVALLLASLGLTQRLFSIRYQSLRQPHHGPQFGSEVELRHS
Put plainly: Measurement of inhibitory activity against the angiotension I-converting enzyme (ACE), hippuryl-l-histidyl-l-leucine as substrate. Format: biochemical, rabbit. How it is done:
The inhibitory activities of compounds of the invention and of the known compound, prazosin, against the angiotension I-converting enzyme (ACE) were measured by the method of D. W. Cushman and H. S. Cheung [Biochem. Pharmacol. 20, 637 (1971)], using hippuryl-l-histidyl-l-leucine as a substrate. The reaction mixture consisted of 225 μl of a 0.1 M borate buffer solution (pH 8.3) containing 0.4 M sodium chloride, 25 μl of the substrate (12.5 mM solution), 25 μl of a partially purified ACE and 25 μl of a test compound solution (prepared from a 1 mg/ml aqueous acetone solution of the compound). This reaction mixture was maintained at 37° C. for 30 minutes, after which 300 μl of 1N hydrochloric acid were added in order to stop the reaction. 2 ml of ehtyl acetate were then added and the mixture was stirred for 10 seconds and then centrifuged at 3,000 rpm for 5 minutes. 1.5 ml of the ethyl acetate layer was separated and concentrated by evaporation to dryness. The residue was dissolved in 1 ml of distilled water and the quantity of hippuric acid in this solution was measured from its absorbance at 228 mμ, using a spectrophotometer.
The ACE solution was prepared by homogenizing 5 g of acetone powders of rabbit lungs (a product of Sigma Chemical Co., U.S.A., prepared by homogenizing rabbit lungs in a buffer solution and separating out the enzymes precipitated with acetone) in 50 ml of a borate buffer solution (pH 8.3), centrifuging the mixture at 40,000 G for 30 minutes and then separating the supernatant.
The inhibitory activity against ACE was calculated from the formula: [formula] in which Ac is the absorbance of the control and As is the absorbance of the sample. Inhibition curves were made for each sample by measuring the inhibitory activity at five different concentrations, prepared by two-fold dilutions. The IC50 values, which are the molar concentrations of the compounds required to inhibit the ACE activity by 50%, were calculated for each compound.

The test system of experiment [2] is angiotensin I-converting enzyme. The note with it: reported by Cushman et al.; cited from earlier work.
In a further experiment the test system is hypertensive animals. The note with it: reported by Cushman et al.; cited from earlier work.
The mark [3] stands for this setting: pH 8.3, 37° C., 30 minutes, partially purified ACE from rabbit lungs, read-out: Inhibitory concentration IC50.

Counter-ions that a name gives are not always drawn. Like-named read-outs stand apart in the source and are kept apart here.

Data on nine compounds can be found in patent US4495188A, “Acylaminoquinazoline derivatives and a pharmaceutical composition containing them” (Sankyo Company Limited, priority 1980, dated 1985).

`CCOC(=O)N1CCN(c2nc(NC(=O)C3CSCN3C(=O)C(C)CSC(C)=O)c3cc(OC)c(OC)cc3n2)CC1` (racemic) [Example 6, 4-[3-(DL-3-Acetylthio-2-methylpropanoyl)thiazolidine-4-carbonyl]amino-2-(4-ethoxycarbonyl-1-piperazinyl)-6,7-dimethoxyquinazoline hydrochloride hemihydrate]: the IC50 in experiment [1] (setting [3]) stood at 1410 nM.
Take `C[C@H](CS)C(=O)N1CCC[C@H]1C(=O)O` [1-(D-3-mercapto-2-methylpropanoyl)-L-proline]: in experiment [2], the “inhibitory activity against the angiotensin I-converting enzyme” value is on record as “potent inhibitory activity”. Also, the antihypertensive activity result with hypertensive animals is given as “exhibits antihypertensive activity”.
With `CCOC(=O)N1CCN(c2nc(NC(=O)[C@@H]3CCCN3C(=O)[C@H](C)CSC(C)=O)c3cc(OC)c(OC)cc3n2)CC1` [Example 1, 4[1-(D-3-Acetylthio-2-methylpropanoyl)-L-prolyl]amino-2-(4-ethoxycarbonyl-1-piperazinyl)-6,7-dimethoxy-quinazoline hydrochloride hemihydrate], in experiment [1] (setting [3]), the IC50 came to 416 nM.
As for `C/C=C/C(=O)N1CCN(c2nc(NC(=O)[C@@H]3CCCN3C(=O)[C@H](C)CSC(C)=O)c3cc(OC)c(OC)cc3n2)CC1` [Example 2, 4[1-(D-3-Acetylthio-2-methylpropanoyl)-L-prolyl]amino-2-(4-crotonoyl-1-piperazinyl)-6,7-dimethoxyquinazoline. hydrochloride hydrate], the IC50 in experiment [1] (setting [3]) stood at 360 nM.
Same read-out and setting: the value for `COc1cc2nc(N3CCN(C(=O)C(C)Oc4ccccc4)CC3)nc(NC(=O)[C@@H]3CCCN3C(=O)[C@H](C)CSC(C)=O)c2cc1OC` (stereo partly drawn) [Example 3, 4-[1-(D-3-Acetylthio-2-methylpropanoyl)-L-prolyl]amino-6,7-dimethoxy-2[4-(2-phenoxypropionyl)-1-piperazinyl]quinazoline hydrochloride hydrate] was 341 nM.
Consider `COc1cc2nc(N3CCN(C(=O)c4ccc(OCc5ccccc5)cc4)CC3)nc(NC(=O)[C@@H]3CCCN3C(=O)[C@H](C)CSC(C)=O)c2cc1OC` [Example 4, 4-[1-(D-3-Acetylthio-2-methylpropanoyl)-L-prolyl]amino-2-[4-(4-benzyloxybenzoyl)-1-piperazinyl]-6,7-dimethoxy-quinazcline hydrochloride sesquihydrate], for which the IC50 in experiment [1] (setting [3]) amounted to 445 nM.
Same read-out and setting: the value for `COc1ccc(C(=O)N2CCN(c3nc(NC(=O)[C@@H]4CCCN4C(=O)[C@H](C)CSC(C)=O)c4cc(OC)c(OC)cc4n3)CC2)cc1OC` [Example 5, 4-[1-(D-3-Acetylthio-2-methylpropanoyl)-L-prolyl]amino-2-(4-(3,4-dimethoxybenzoyl)-1-piperazinyl]-6,7-dimethoxy-quinazoline hydrochloride sesquihydrate] was 261 nM; that for `COc1cc2nc(N3CCN(C(=O)c4ccco4)CC3)nc(NC(=O)[C@@H]3CCCN3C(=O)[C@H](C)CSC(C)=O)c2cc1OC` [Example 7, 4-[1-(D-3-Acetylthio-2-methylpropanoyl)-L-prolyl]amino-2-[4-(2-furoyl)-1-piperazinyl]-6,7-dimethoxyquinazoline.hydrochloride.hydrate] was 310 nM.
In experiment [1], `COc1cc2nc(N3CCN(C(=O)c4ccco4)CC3)nc(N)c2cc1OC` [prazosin, reference compound] came in with an IC50 of at least 10000 nM.
